In patent US20240228476A1, “INHIBITORS OF PROTEIN TYROSINE PHOSPHATASE, COMPOSITIONS, AND METHODS OF USE” (BRISTOL-MYERS SQUIBB COMPANY, priority 2022, published 2024):

Legend:
B16-F10 cells = assay: Cell proliferation assay (CellTiter-Glo) in B16-F10 cells with IFN-gamma; assay type: cell-based; settings: 120 h, mouse IFN-gamma 10 ng/mL, read-out: PTPN2 Prolif 5d B16F10 EC50
Method: B16-F10 cells (ATCC, Manassas, VA, #CRL-6475) were cultured in DMEM growth medium (ThermoFisher Scientific, Waltham, MA, #11995-040) supplemented with 10% heat inactivated FBS (ThermoFisher Scientific, #16140-071) and 1% pen/strep (ThermoFisher Scientific, #15140-122). The cells were seeded into two white opaque 384-well tissue culture treated microplates (PerkinElmer, Waltham, MA, #6007688) at a density of 100 cells/well in 20 uL total volume and incubated overnight at 37 C and 5% CO2. 30 nL of compounds dissolved in DMSO were then transferred from a source plate into target wells with the Echo650 acoustic liquid handler (Beckman Coulter, Indianapolis, IN). Negative control wells received 30 nL of DMSO only (0.15% final concentration). Plates were returned to the incubator for 1 hour and then cells treated with either 5 uL of growth medium or 5 uL of growth medium containing 50 ng/ml of recombinant mouse IFN-gamma protein (R&D Systems, Minneapolis, MN, #485-MI/CF, 10 ng/mL final concentration) using the Assist automated pipetting platform (INTEGRA Biosciences, Hudson, NH). Plates were incubated at 37 C for 4 days and cell proliferation assayed with the CellTiter-Glo reagent (Promega, Madison, WI, #G7573, 25 uL per well). […] Off-target compound mediated cytotoxicity was identified by checking for growth inhibition in the absence of IFNg.

phospho-STAT1 (Tyr701) = assay: Phospho-STAT1 (Tyr701) HTRF assay in B16-F10 cells; assay type: cell-based; settings: mouse IFN-gamma 100 ng/ml, 1 hour, read-out: pSTAT1 HTRF B16 EC50
Method: B16-F10 cells (ATCC, Manassas, VA, #CRL-6475) were cultured in DMEM growth medium (ThermoFisher Scientific, Waltham, MA, #11995-040) supplemented with 10% heat inactivated FBS (ThermoFisher Scientific, #16140-071) and 1% pen/strep (ThermoFisher Scientific, #15140-122). The cells were seeded into a white opaque 384-well tissue culture treated microplate (PerkinElmer, Waltham, MA, #6007688) at a density of 10,000 cells/well in 20 uL total volume and incubated overnight at 37 C and 5% CO2. 30 nL of compounds dissolved in DMSO were then transferred from a source plate into target wells with the Echo650 acoustic liquid handler (Beckman Coulter, Indianapolis, IN). Negative control wells received 30 nL of DMSO only (0.15% final concentration). Plates were returned to the incubator for 1 hour and then cells treated with either 5 uL of growth medium or 5 uL of growth medium containing 500 ng/ml of recombinant mouse IFN-gamma protein (R&D Systems, Minneapolis, MN, #485-MI/CF, 100 ng/ml final concentration) using the Assist automated pipetting platform (INTEGRA Biosciences, Hudson, NH). Plates were incubated at 37 C for 1 hour and assayed for phosphorylated STAT1 protein levels with the phospho-STAT1 (Tyr701) HTRF kit (Cisbio, Bedford, MA, #63ADK026PEH) according to manufacturer's instructions. HTRF signal intensity was collected with the En Vision 2105 plate reader (PerkinElmer) 24 hours later and analyzed with the Dotmatics software platform to calculate compound IC50 values.

PTPN2 [1] = biological target: T1, PTPN2 (Homo sapiens, UniProt P17706); assay: Phosphatase activity assay using DiFMUP as substrate; assay type: biochemical; set-up: purchased MilliporeSigma SRP5075; settings: 10 mM DTT, PTPN2 0.15 nM, room temperature, read-out: PTPN2 BCHEM DIFMUP IC50
T1 sequence (P17706 1-415): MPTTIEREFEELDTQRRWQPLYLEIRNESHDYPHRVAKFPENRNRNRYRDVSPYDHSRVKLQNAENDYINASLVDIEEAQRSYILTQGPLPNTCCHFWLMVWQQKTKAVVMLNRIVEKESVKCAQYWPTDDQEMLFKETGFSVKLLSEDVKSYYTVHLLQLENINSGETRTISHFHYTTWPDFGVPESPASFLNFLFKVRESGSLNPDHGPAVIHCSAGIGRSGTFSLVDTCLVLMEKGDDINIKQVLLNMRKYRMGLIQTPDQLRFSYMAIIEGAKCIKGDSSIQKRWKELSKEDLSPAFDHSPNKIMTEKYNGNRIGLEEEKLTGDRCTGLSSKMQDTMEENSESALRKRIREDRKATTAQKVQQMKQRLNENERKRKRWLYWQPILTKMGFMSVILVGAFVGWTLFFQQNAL
Method: The PTPN2 biochemical assay was performed as follows, a 5× stock solution of human PTPN2 (SRP5075, MilliporeSigma, Burlington, MA) and a 1.25× stock solution of DiFMUP (D6567, ThermoFisher Scientific, Waltham, MA), were prepared in 1× reaction buffer consisting of 50 mM HEPES, pH 7.4, 1 mM EDTA, 150 mM NaCl, 0.2 mg/mL BSA, 100 U/mL catalase and 10 mM DTT. […] of the DiFMUP substrate solution, for a final concentration of […] DiFMUP substrate, was added to a Corning 3574 384-well, white, non-binding surface microtiter plate containing […] of serially diluted test compounds prepared in DMSO. The reactions were started with the addition of […] of the enzyme solution, for a final PTPN2 concentration of 0.15 nM, and monitored every 105 seconds for 60 minutes at λEX 360/λEM 460 in a BioTek Synergy HTX plate reader (Agilent Technologies, Santa Clara, CA) at room temperature. The initial linear portions of the progress curves were fit according to a linear equation to yield the slopes and converted to % inhibition based on a value of 100% activity for the no inhibitor treated control. IC50 values of each compound were obtained by fitting the % inhibition-compound concentration curves using Dotmatics software (Dotmatics, Bishops Stortford, Hertfordshire, England)
(§1) For IC50 data, High DDT concentration and/or DiFMUP substrate assays were used; a skilled artisan may use either assay.

PTPN2 [2] = biological target: T1, PTPN2; assay: PTPN2 biochemical assay (PhosphoSens, substrate AQT0264); settings: PhosphoSens substrate AQT0264 20 μM, room temperature; read-out: PTPN2 BCHEM IC50
Method: A PhosphoSens® kinase assay was performed as described by the vendor (AssayQuant Technologies, Marlborough, MA). Briefly, 1000× solutions of compounds were prepared in DMSO via serial dilution of the 10 mM DMSO stocks using 3-fold intervals in a 384-well reagent plate. 50 nL of the compound dilution series was then added to the corresponding wells of a 384-well assay plate. 40 mL of 1.25× substrate (AQT0264) in 1× assay buffer (50 mM HEPES pH 7.5, 500 μM EGTA, […] MgCl2, 0.01% Brij-35, 1% Glycerol, 1 mM DTT, and 0.2 mg/mL BSA) was transferred to each well of the assay plate to achieve a final substrate concentration of 20 μM. Finally, […] of 5×PTPN2 enzyme stock was added to each well of the assay plate for a final enzyme concentration of […]. Reaction progress curves were collected by sampling fluorescence intensity at the excitation wavelength 360 nm (λex360) and emission wavelength 480 nm (λem480) every 71 seconds for one hour using a Synergy H4 plate reader (BioTek Instruments/Agilent Technologies, Winooski, VT) at room temperature.
as §1

SMILES | EC50 (B16-F10 cells) [µM] | EC50 (phospho-STAT1 (Tyr701)) [µM] | IC50 (PTPN2 [1]) [µM] | IC50 (PTPN2 [2]) [µM]
Cc1c(NCc2cc(O)c(N3CC(=O)NS3(=O)=O)c(F)c2)ccnc1-c1ccc(C(C)(C)C)cc1 [EXAMPLE 15, 5-[4-[[[2-(4-tert-butylphenyl)-3-methyl-4-pyridyl]amino]methyl]-2-fluoro-6-hydroxy-phenyl]-1,1-dioxo-1,2,5-thiadiazolidin-3-one] | > 15 | > 15 | 0.03 | 0.03
COc1ncc(C)nc1NCc1cc(O)c(N2CC(=O)NS2(=O)=O)c(F)c1 [EXAMPLE 20, 5-[2-fluoro-6-hydroxy-4-[[(3-methoxy-6-methyl-pyrazin-2-yl)amino]methyl]phenyl]-1,1-dioxo-1,2,5-thiadiazolidin-3-one] | > 15 | > 15 | 11.1 | 0.07
Cc1cnc(C)c(NCc2cc(O)c(N3CC(=O)NS3(=O)=O)c(F)c2)n1 [EXAMPLE 18, 5-[4-[[(3,6-dimethylpyrazin-2-yl)amino]methyl]-2-fluoro-6-hydroxy-phenyl]-1,1-dioxo-1,2,5-thiadiazolidin-3-one] | > 15 | > 15 | 0.11 | 0.05
O=C1CN(c2c(O)cc(CNc3cncc(-c4ccccc4)c3)cc2F)S(=O)(=O)N1 [EXAMPLE 12, 5-[2-fluoro-6-hydroxy-4-[[(5-phenyl-3-pyridyl)amino]methyl]phenyl]-1,1-dioxo-1,2,5-thiadiazolidin-3-one] | > 15 | > 15 | 0.1 | 0.02
COc1ncc(C)c(NCc2cc(O)c(N3CC(=O)NS3(=O)=O)c(F)c2)n1 [EXAMPLE 22, 5-[2-fluoro-6-hydroxy-4-[[(2-methoxy-5-methyl-pyrimidin-4-yl)amino]methyl]phenyl]-1,1-dioxo-1,2,5-thiadiazolidin-3-one] | 10.9 | 6.8 | 0.05 | 0.02
CC(C)(C)c1ccc(Oc2ccc(NCc3cc(O)c(N4CC(=O)NS4(=O)=O)c(F)c3)cn2)cc1 [EXAMPLE 31, 5-[4-[[[6-(4-tert-butylphenoxy)-3-pyridyl]amino]methyl]-2-fluoro-6-hydroxy-phenyl]-1,1-dioxo-1,2,5-thiadiazolidin-3-one] | > 15 | > 15 | 0.06 | 0.02
CCN(Cc1cc(O)c(N2CC(=O)NS2(=O)=O)c(F)c1)c1nc(C)cc(-c2ccccc2C#N)n1 [EXAMPLE 14, 2-[2-[ethyl-[[3-fluoro-5-hydroxy-4-(1,1,4-trioxo-1,2,5-thiadiazolidin-2-yl)phenyl]methyl]amino]-6-methyl-pyrimidin-4-yl]benzonitrile] | > 15 | > 15 | 0.49 | 0.21

The next compounds have a lower EC50 (B16-F10 cells) than those just listed; values first:

EC50 (B16-F10 cells) [µM] | EC50 (phospho-STAT1 (Tyr701)) [µM] | IC50 (PTPN2 [1]) [µM] | IC50 (PTPN2 [2]) [µM] | SMILES
1.24 | 0.37 | 0.05 | 0.01 | Cc1ncc(NCc2cc(O)c(N3CC(=O)NS3(=O)=O)c(F)c2)nc1C [EXAMPLE 19, 5-[4-[[(5,6-dimethylpyrazin-2-yl)amino]methyl]-2-fluoro-6-hydroxy-phenyl]-1,1-dioxo-1,2,5-thiadiazolidin-3-one]
1.37 | 0.93 | 0.05 | 0.01 | CC(C)c1cncc(NCc2cc(O)c(N3CC(=O)NS3(=O)=O)c(F)c2)c1 [EXAMPLE 13, 5-[2-fluoro-6-hydroxy-4-[[(5-isopropyl-3-pyridyl)amino]methyl]phenyl]-1,1-dioxo-1,2,5-thiadiazolidin-3-one]
0.9 | 0.42 | 0.13 | 0.02 | CN(C)c1ccc(NCc2cc(O)c(N3CC(=O)NS3(=O)=O)c(F)c2)cn1 [EXAMPLE 1, 5-[4-[[[6-(dimethylamino)-3-pyridyl]amino]methyl]-2-fluoro-6-hydroxy-phenyl]-1,1-dioxo-1,2,5-thiadiazolidin-3-one]
1.55 | 1.92 | 0.02 | 0.01 | COc1cncc(NCc2cc(O)c(N3CC(=O)NS3(=O)=O)c(F)c2)n1 [EXAMPLE 23, 5-[2-fluoro-6-hydroxy-4-[[(6-methoxypyrazin-2-yl)amino]methyl]phenyl]-1,1-dioxo-1,2,5-thiadiazolidin-3-one]
1.73 | 0.69 | 0.03 | 0.001 | Cc1cncc(NCc2cc(O)c(N3CC(=O)NS3(=O)=O)c(F)c2)n1 [EXAMPLE 16, 5-[2-fluoro-6-hydroxy-4-[[(6-methylpyrazin-2-yl)amino]methyl]phenyl]-1,1-dioxo-1,2,5-thiadiazolidin-3-one]
4.28 | 0.79 | 0.03 | 0.03 | Cc1nccc(NCc2cc(O)c(N3CC(=O)NS3(=O)=O)c(F)c2)n1 [EXAMPLE 24, 5-[2-fluoro-6-hydroxy-4-[[(2-methylpyrimidin-4-yl)amino]methyl]phenyl]-1,1-dioxo-1,2,5-thiadiazolidin-3-one]
0.41 | 0.65 | 0.1 | 0.01 | O=C1CN(c2c(O)cc(CNc3ccc(C4CC4)nc3)cc2F)S(=O)(=O)N1 [EXAMPLE 10, 5-[4-[[(6-cyclopropyl-3-pyridyl)amino]methyl]-2-fluoro-6-hydroxy-phenyl]-1,1-dioxo-1,2,5-thiadiazolidin-3-one]
